Measurements reported in US20150166505A1, “PYRIDINYL-SUBSTITUTED PYRAZOLYL CARBOXAMIDES” (GRÜNENTHAL GMBH, priority 2013, published 2015).
Where two headings read alike, the source gives them in different places.

Experiments:
[1] = target: T1, CRAC channel (endogenous SOC in HEK293 cells) (Homo sapiens, UniProt Q96D31); experiment: HEK Calcium Influx Assay (FLIPR); assay type: cell-based
T1 construct: endogenous in cells; host or cells: HEK293 (ECACC)
Description: The effect of compounds of the invention on intracellular [Ca^2+] was tested in the HEK293 cell line (ECACC). HEK293 cells were cultured in DMEM/F12/Glutamax (Gibco) containing 10% FCS (Gibco), and maintained at 37° C., 5% CO2. Cell were split twice a week [3*10^6 (Mon-Thu) and 1*10^6 (Thu-Mon) cells/50 ml medium in T-175 ZK culture flasks, respectively]. Twenty four hours pre-experiment, cells were seeded on 96 well plates (Poly-D-Lysine 96well Black/Clear Plate, BD Biocoat REF 356640) at a density of 40,000 cells/well in DMEM/F12 (Gibco) containing 10% FCS (Gibco), and maintained at 37° C., 5% CO2. Prior to store-depletion, cell culture medium was removed and cells were loaded with the a Calcium-sensitive fluorescent dye comprised within the Calcium-4-assay kit (Molecular Devices) in nominally Ca^2+-free HBS buffer (140 mM NaCl, 4 mM KCl, 0.2 mM MgCl2, 11 mM D-glucose, and 10 mM HEPES, pH 7.4) according to manufacturer's instruction for 60 min at 37° C., 5% CO2. Passive depletion of intracellular Ca^2+-stores was then triggered by employing the SERCA inhibitor thapsigargin (2 μM final) for 10 min in the dark (RT). To prevent immediate Ca^2+-entry via the activated Store-operated channels (SOCs), cells were maintained in Ca^2+-free HBS buffer comprising 100 μM EGTA during store-depletion. Intracellular changes in [Ca^2+] were subsequently monitored with the FLIPR device (Molecular Devices). In brief, baseline imaging post-store depletion was allowed for 1 min before adjusting the extracellular buffer to 3 mM CaCl2. Increases in intracellular [Ca^2+] due to pre-activated SOC channels were monitored for 15 min until intracellular Ca^2+ levels had declined into a steady-state. Finally, compounds were administered and Ca^2+ signals were recorded for additional 10 min. Inhibition of endogenous SOC in HEK293 cells was quantified employing the average Ca^2+ signal measured from 9.5-10 min post-administration. Zero percent inhibition (MAX) was defined as the Ca^2+ signal recorded from wells to which DMSO-only had been added instead of compound. Hundred percent inhibition (MIN) was defined as the signal obtained from wells in which cells haven't been treated with TG prior to Ca^2+ addition and to which DMSO-only had been added instead of compound. For routine IC50 determinations of compounds, 8 concentrations of a serial dilution (1:3.16) were tested, starting off from 10 μM. Reliable IC50's could consequently be determined only, if they were at least sub 2.5-3 μM.

[2] = test system: Interleukin-2 (IL-2) production/release in Jurkat T cell line; experiment: Jurkat IL-2 Production Assay; assay type: cell-based; conditions: Homo sapiens; Jurkat T cells, PHA stimulation 22 hours
Description: Jurkat IL-2 Production Assay
The effect of compounds of the invention on Interleukin-2 (IL-2) production/release was tested in the Jurkat T cell line (ECACC) clone E6-1. Jurkat T cells were cultured in DMEM/F12/Glutamax (Gibco) containing 10% FCS (Gibco), and maintained at 37° C., 5% CO2. Cell were split twice a week [5*10^6 (Mon-Thu) and 1*10^7 (Thu-Mon) cells/50 ml medium in T-175 ZK culture flasks, respectively]. Prior to experiment, cells were seeded on 96 well plates (Cellstar 96 Well; Cat No. 655180, Greiner bio-one) at a density of 5*10^5 cells/well in DMEM/F12/Glutamax (Gibco) containing 10% FCS (Gibco), and incubated for 60 min at 37° C., 5% CO2. Subsequently, compounds were added and cells were allowed to incubate for 30 min at 37° C., 5% CO2. Cells were then stimulated with 15 μg/ml Phytohemagglutinin (PHA; Sigma) for 22 hours at 37° C., 5% CO2. Before sampling of the supernatants, cells were spun down (200*g/5 min/RT). The amount of IL-2 released into the supernatant was quantified with the human IL-2 AlphaLisa kit (Perkin Elmer) according to manufacturer's instructions. Luminescence proximity measurements were carried out in the Synergy H4 reader (BioTek) employing the fluorescence setting of the reader (ex: 680/30 nm; em: 620/40 nm). Inhibition of IL-production/release in/from Jurkat T cells was quantified as follows: Zero percent inhibition (MAX) was defined as the [IL-2] determined in supernatants derived from cells to which PHA & DMSO-only had been added instead of compound. Hundred percent inhibition (MIN) was defined as the [IL-2] determined in supernatants derived from cells that had been pre-treated with 1 μM CyclosporineA (Sigma) before the addition of 15 μg/ml PHA. For routine IC50 determinations of compounds, 8 concentrations of a serial dilution (1:3.16) were tested, starting off from 10 μM.

[3] = numeric values of Table 2, read-out: inhib. [@ 10 μM] FLIPR
[4] = thapsigargin store depletion, read-out: % inhib. [@ 10 μM] FLIPR

T1 sequence (Q96D31 whole entry): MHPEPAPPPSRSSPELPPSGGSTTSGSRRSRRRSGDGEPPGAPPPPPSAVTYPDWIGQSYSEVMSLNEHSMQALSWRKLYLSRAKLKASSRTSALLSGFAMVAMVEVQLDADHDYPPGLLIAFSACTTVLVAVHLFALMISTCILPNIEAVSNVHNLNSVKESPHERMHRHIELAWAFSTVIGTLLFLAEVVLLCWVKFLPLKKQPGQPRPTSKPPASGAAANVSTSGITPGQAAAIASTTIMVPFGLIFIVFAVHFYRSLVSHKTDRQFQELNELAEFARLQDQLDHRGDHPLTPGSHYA

Compound	inhibition at 10 µM [1, 3]	inhibition at 10 µM [1, 4]	IC50 [2]
CCOc1cc(C)c(-c2cc(C(=O)Nc3c(F)cncc3F)nn2C)cn1 [Example 2, N-(3,5-Difluoro-pyridin-4-yl)-5-(6-ethoxy-4-methyl-pyridin-3-yl)-1-methyl-1H-pyrazole-3-carboxylic acid amide]	95%	> 70%	0.5 to 1 µM
CCOc1ccc(-c2cc(C(=O)Nc3c(F)cccc3F)nn2C)c(C)n1 [Example 5, N-(2,6-Difluoro-phenyl)-5-(6-ethoxy-2-methyl-pyridin-3-yl)-1-methyl-1H-pyrazole-3-carboxylic acid amide]		> 70%	1 to 5 µM
CCc1cc(C)c(-c2cc(C(=O)Nc3c(F)cccc3F)nn2C)cn1 [Example 6, N-(2,6-Difluoro-phenyl)-5-(6-ethyl-4-methyl-pyridin-3-yl)-1-methyl-1H-pyrazole-3-carboxylic acid amide]	67%	> 70%	1 to 5 µM
CCc1cc(C)c(-c2cc(C(=O)Nc3c(F)cncc3F)nn2C)cn1 [Example 7, N-(3,5-Difluoro-pyridin-4-yl)-5-(6-ethyl-4-methyl-pyridin-3-yl)-1-methyl-1H-pyrazole-3-carboxylic acid amide]	61%	50 to 70%	1 to 5 µM
Cc1cc(C2CC2)ncc1-c1cc(C(=O)Nc2c(F)cccc2F)nn1C [Example 8, 5-(6-Cyclopropyl-4-methyl-pyridin-3-yl)-N-(2,6-difluoro-phenyl)-1-methyl-1H-pyrazole-3-carboxylic acid amide]	81%	> 70%	1 to 5 µM
Cc1cc(OC2CC2)ncc1-c1cc(C(=O)Nc2c(F)cncc2F)nn1C [Example 9, 5-(6-Cyclopropyloxy-4-methyl-pyridin-3-yl)-N-(3,5-difluoro-pyridin-4-yl)-1-methyl-1H-pyrazole-3-carboxylic acid amide]	76%	> 70%	0.5 to 1 µM
Cc1cc(OC2CC2)ncc1-c1cc(C(=O)Nc2c(F)cccc2F)nn1C [Example 10, 5-(6-Cyclopropyloxy-4-methyl-pyridin-3-yl)-N-(2,6-difluoro-phenyl)-1-methyl-1H-pyrazole-3-carboxylic acid amide]	83%	> 70%	0.5 to 1 µM
Cc1cc(OC(F)(F)F)ncc1-c1cc(C(=O)Nc2c(F)cncc2F)nn1C [Example 11, N-(3,5-Difluoro-pyridin-4-yl)-1-methyl-5-[4-methyl-6-(trifluoromethyloxy)-pyridin-3-yl]-1H-pyrazole-3-carboxylic acid amide]	94%	> 70%	< 0.5 µM
Cc1cc(OC(F)(F)F)ncc1-c1cc(C(=O)Nc2c(F)cccc2F)nn1C [Example 12, N-(2,6-Difluoro-phenyl)-1-methyl-5-[4-methyl-6-(trifluoromethyloxy)-pyridin-3-yl]-1H-pyrazole-3-carboxylic acid amide]	92%	> 70%	< 0.5 µM
Cc1cc(OCC2CCC2)ncc1-c1cc(C(=O)Nc2c(F)cccc2F)nn1C [Example 18]			1 to 5 µM
Cc1cc(COc2cc(C)c(-c3cc(C(=O)Nc4c(F)cccc4F)nn3C)cn2)no1 [Example 19, N-(2,6-Difluoro-phenyl)-1-methyl-5-[4-methyl-6-[(5-methyl-isoxazol-3-yl)-methoxy]-pyridin-3-yl]-1H-pyrazole-3-carboxylic acid amide]	113%	> 70%	
Cc1cc(C#N)ncc1-c1cc(C(=O)Nc2c(F)cccc2F)nn1C [Example 41, 5-(6-Cyano-4-methyl-pyridin-3-yl)-N-(2,6-difluoro-phenyl)-1-methyl-1H-pyrazole-3-carboxylic acid amide]		< 50%	
COc1cc(C(F)(F)F)ncc1-c1cc(C(=O)Nc2c(F)cccc2F)nn1C [Example 42, N-(2,6-Difluoro-phenyl)-5-[4-methoxy-6-(trifluoromethyl)-pyridin-3-yl]-1-methyl-1H-pyrazole-3-carboxylic acid amide]			0.5 to 1 µM
Cc1cc(OC(C)C)ncc1-c1cc(C(=O)Nc2c(F)cncc2F)nn1C [Example 52, N-(3,5-Difluoro-pyridin-4-yl)-5-(6-isopropoxy-4-methyl-pyridin-3-yl)-1-methyl-1H-pyrazole-3-carboxylic acid amide]			0.5 to 1 µM

Other lines, results leading:

inhibition at 10 µM [1, 3]	inhibition at 10 µM [1, 4]	IC50 [2]	Compound
		0.5 to 1 µM	COc1cc(C2CC2)ncc1-c1cc(C(=O)Nc2c(F)cncc2F)nn1C [Example 53, 5-(6-Cyclopropyl-4-methoxy-pyridin-3-yl)-N-(3,5-difluoro-pyridin-4-yl)-1-methyl-1H-pyrazole-3-carboxylic acid amide]
		1 to 5 µM	COc1cc(C)c(-c2cc(C(=O)Nc3c(F)cccc3F)nn2C)cn1 [Example 58, N-(2,6-Difluoro-phenyl)-5-(6-methoxy-4-methyl-pyridin-3-yl)-1-methyl-1H-pyrazole-3-carboxylic acid amide]
67%	50 to 70%		COCc1cc(C)c(-c2cc(C(=O)Nc3c(F)cccc3F)nn2C)cn1 [Example 59, N-(2,6-Difluoro-phenyl)-5-[6-(methoxymethyl)-4-methyl-pyridin-3-yl]-1-methyl-1H-pyrazole-3-carboxylic acid amide]
	< 50%		COc1cc(O)ncc1-c1cc(C(=O)Nc2c(F)cccc2F)nn1C [Example 70, N-(2,6-Difluoro-phenyl)-5-(6-hydroxy-4-methoxy-pyridin-3-yl)-1-methyl-1H-pyrazole-3-carboxylic acid amide]
	< 50%		CCOc1cc(O)c(-c2cc(C(=O)Nc3c(F)cccc3F)nn2C)cn1 [Example 71, N-(2,6-Difluoro-phenyl)-5-(6-ethoxy-4-hydroxy-pyridin-3-yl)-1-methyl-1H-pyrazole-3-carboxylic acid amide]
	< 50%		Cn1nc(C(=O)Nc2c(F)cccc2F)cc1-c1nc(C(F)(F)F)ccc1C#N [Example 72, 5-[3-Cyano-6-(trifluoromethyl)-pyridin-2-yl]-N-(2,6-difluoro-phenyl)-1-methyl-1H-pyrazole-3-carboxylic acid amide]
	< 50%		Cn1nc(C(=O)Nc2c(F)cccc2F)cc1-c1nc(C(C)(C)C)ccc1C#N [Example 73, 5-(6-tert-Butyl-3-cyano-pyridin-2-yl)-N-(2,6-difluoro-phenyl)-1-methyl-1H-pyrazole-3-carboxylic acid amide]
		1 to 5 µM	COc1cc(N(C)C)c(-c2cc(C(=O)Nc3c(F)cccc3F)nn2C)cn1 [Example 75, N-(2,6-Difluoro-phenyl)-5-(4-dimethylamino-6-methoxy-pyridin-3-yl)-1-methyl-1H-pyrazole-3-carboxylic acid amide]
